# Results published in ChEMBL document CHEMBL4477222, “Discovery of Novel Thiophene-Based, Thumb Pocket 2 Allosteric Inhibitors of the Hepatitis C NS5B Polymerase with Improved Potency and Physicochemical Profiles” (J Med Chem, 2016).
# What was measured:
# [1] = Cytotoxicity against human Huh7ET cells assessed as reduction in cell viability after 4 days; type: cell-based
# [2] = Cytotoxicity against human W11.8 cells assessed as reduction in cell viability after 4 days; type: cell-based
# [3] = molecular target: Nonstructural protein 5A (Hepatitis C virus) (UniProt Q5L478); experiment: Ratio of EC50 for HCV genotype 1b NS5A infected in human l389lucubi- neo/NS3-375.1-containing Huh7ET cells in presence of 40% human serum to EC50 for HCV genotype 1b NS5A infected in human l389lucubi- neo/NS3-375.1-containing Huh7ET cells; settings: Hepatitis C virus subtype 1b
# [4] = molecular target: RNA-directed RNA polymerase (Hepacivirus hominis, UniProt O39930, M423I); experiment: Inhibition of HCV genotype 1a NS5B M423I mutant; parameters: species or system Hepatitis C virus subtype 1a
# Hepatitis C virus = experiment: Antiviral activity against HCV genotype 1 infected in human assessed as log10 reduction in viral load at 500 mg[…] bid for 3 days measured on day 4 post treatment; type: functional, Hepacivirus hominis
# [5] = molecular target: RNA-directed RNA polymerase (Hepacivirus hominis, UniProt O39930, L419M); experiment: Inhibition of HCV genotype 1a NS5B L419M mutant; parameters: species or system Hepatitis C virus subtype 1a
# [6] = molecular target: RNA-directed RNA polymerase (Hepacivirus hominis, UniProt O39930, M423V); experiment: Inhibition of HCV genotype 1a NS5B M423V mutant; parameters: species or system Hepatitis C virus subtype 1a
# [7] = molecular target: RNA-directed RNA polymerase (Hepacivirus hominis, UniProt O39930, M423T); experiment: Inhibition of HCV genotype 1a NS5B M423T mutant; parameters: species or system Hepatitis C virus subtype 1a
# Nonstructural protein 5A = Nonstructural protein 5A (Hepatitis C virus, UniProt Q5L478); experiment: Inhibition of HCV genotype 2a NS5A; parameters: species or system Hepatitis C virus subtype 2a
# [8] = molecular target: RNA-directed RNA polymerase (Hepacivirus hominis, UniProt O39930, L419I); experiment: Inhibition of HCV genotype 1a NS5B L419I mutant; parameters: species or system Hepatitis C virus subtype 1a
structure (smiles),measurement,setting,value
CCC[C@@H](C(=O)N(C)C)N(c1cc(C#CC(C)(C)C)sc1C(=O)O)C(=O)[C@H]1CC[C@H](C)CC1,CC50 at 96 h,[1],> 20 µM
same,CC50 at 96 h,[2],> 20 µM
CC[C@@H](C(=O)N(C)C)N(c1cc(C#CC(C)(C)C)sc1C(=O)O)C(=O)[C@H]1CC[C@H](C)CC1,CC50 at 96 h,[1],> 20 µM
same,CC50 at 96 h,[2],> 20 µM
CC(C)(C)C#Cc1cc(N(CC(=O)N2CCC(O)CC2)C(=O)[C@H]2CC[C@H](C)CC2)c(C(=O)O)s1,CC50 at 96 h,[1],> 20 µM
same,CC50 at 96 h,[2],> 20 µM
CC(C)(C)C#Cc1cc(N(C(=O)[C@H]2CC[C@H](C)CC2)[C@H]2CC[C@H](O)CC2)c(C(=O)O)s1 [LOMIBUVIR],CC50 at 96 h,[1],> 20 µM
same,Ratio EC50,[3],10 to 20
same,CC50 at 96 h,[2],> 20 µM
same,EC50,[4],0.03 µM
same,FC,Hepatitis C virus,3.4
same,EC50,[5],0.32 µM
same,EC50,[6],0.065 µM
same,EC50,[7],0.31 µM
same,EC50,Nonstructural protein 5A,8.1 µM
same,EC50,[8],0.32 µM
CN(C)CCN(C)C(=O)CN(c1cc(C#CC(C)(C)C)sc1C(=O)O)C(=O)[C@H]1CC[C@H](C)CC1,CC50 at 96 h,[1],> 20 µM
same,CC50 at 96 h,[2],> 20 µM
COC1CCN(C(=O)CN(c2cc(C#CC(C)(C)C)sc2C(=O)O)C(=O)[C@H]2CC[C@H](C)CC2)CC1,CC50 at 96 h,[1],> 20 µM
same,CC50 at 96 h,[2],> 20 µM
COC[C@@H](C(=O)N(C)C)N(c1cc(C#CC(C)(C)C)sc1C(=O)O)C(=O)[C@H]1CC[C@H](C)CC1,CC50 at 96 h,[1],> 20 µM
same,CC50 at 96 h,[2],> 20 µM
CCN(CC)C(=O)CN(c1cc(C#CC(C)(C)C)sc1C(=O)O)C(=O)[C@H]1CC[C@H](C)CC1,CC50 at 96 h,[1],> 20 µM
same,CC50 at 96 h,[2],> 20 µM
CN(C)C(=O)CN(c1cc(C#CC(C)(C)C)sc1C(=O)O)C(=O)[C@H]1CC[C@H](C)CC1,CC50 at 96 h,[1],> 20 µM
same,CC50 at 96 h,[2],> 20 µM
CN(C)C(=O)[C@H](CO)N(c1cc(C#CC(C)(C)C)sc1C(=O)O)C(=O)[C@H]1CC[C@H](C)CC1,CC50 at 96 h,[1],> 20 µM
same,CC50 at 96 h,[2],> 20 µM
CC(C)[C@@H](C(=O)N(C)C)N(c1cc(C#CC(C)(C)C)sc1C(=O)O)C(=O)[C@H]1CC[C@H](C)CC1,CC50 at 96 h,[1],> 20 µM
same,CC50 at 96 h,[2],> 20 µM
CC(C)(C)C#Cc1cc(N(CC(=O)N2CCCC2)C(=O)[C@H]2CC[C@H](C)CC2)c(C(=O)O)s1,CC50 at 96 h,[1],> 20 µM
same,CC50 at 96 h,[2],> 20 µM
CC(C)(C)C#Cc1cc(N(CC(=O)N2CCCCC2)C(=O)[C@H]2CC[C@H](C)CC2)c(C(=O)O)s1,CC50 at 96 h,[1],> 20 µM
same,CC50 at 96 h,[2],> 20 µM
C[C@@H](C(=O)N(C)C)N(c1cc(C#CC(C)(C)C)sc1C(=O)O)C(=O)[C@H]1CC[C@H](C)CC1,CC50 at 96 h,[1],> 20 µM
same,CC50 at 96 h,[2],> 20 µM
CNC(=O)CN(c1cc(C#CC(C)(C)C)sc1C(=O)O)C(=O)[C@H]1CC[C@H](C)CC1,CC50 at 96 h,[1],> 20 µM
same,CC50 at 96 h,[2],> 20 µM
CC(C)NC(=O)CN(c1cc(C#CC(C)(C)C)sc1C(=O)O)C(=O)[C@H]1CC[C@H](C)CC1,CC50 at 96 h,[1],> 20 µM
same,CC50 at 96 h,[2],> 20 µM
CN1CCN(C(=O)CN(c2cc(C#CC(C)(C)C)sc2C(=O)O)C(=O)[C@H]2CC[C@H](C)CC2)CC1,CC50 at 96 h,[1],> 20 µM
same,CC50 at 96 h,[2],> 20 µM
CC(C)(C)C#Cc1cc(N(CC(=O)N2CC(O)C2)C(=O)[C@H]2CC[C@H](C)CC2)c(C(=O)O)s1,CC50 at 96 h,[1],> 20 µM
same,CC50 at 96 h,[2],> 20 µM
C[C@H](C(=O)N(C)C)N(c1cc(C#CC(C)(C)C)sc1C(=O)O)C(=O)[C@H]1CC[C@H](C)CC1,CC50 at 96 h,[1],> 20 µM
same,CC50 at 96 h,[2],> 20 µM
